{
  "source": "patent US20110200656A1",
  "about": "“ANTIMICROBIAL CURRENCY, MATERIAL AND METHOD” (MICROBAN PRODUCTS COMPANY, priority 2007, published 2011)",
  "key": {"[1]": {"system": "Escherichia coli ATCC 8739", "assay": "Quantitative evaluation of antibacterial activity of bank note samples, modified AATCC 100-1993", "details": "625 ppm agent in acrylate coating", "method": "(§1) For the testing, a protocol was selected which measured the percent kill in a bacterial population over a period of time when put in contact with banknote samples.\n(§2) Tests were conducted against two common bacteria: the gram-positive Staphylococcus aureus, which is found almost everywhere in and on the body, and which can cause numerous infections; as well as the gram-negative Escherichia coli, which is a common “bathroom bacteria” that can cause severe food poisoning. With good results against these organisms, efficacy against a broad spectrum of other bacteria can be predicted.\n(§3) Ten samples marked Secu-GB1-A-260503, Secu-GB2-A-260503, Secu-GB3-A-260503, Secu-GB4-A-260503, Secu-GB5-A-260503, Secu-C-A-260503, Secu-C-B-260503, Secu-C-C-260503, Secu-C-D-260503 and Secu-C-E-260503 were manufactured employing 2,4,4′-trichloro-2′-hydroxydiphenyl ether in the acrylate composition applied as a coating layer on the planar material.\n(§4) Samples from the bank note prototypes were evaluated for their antibacterial activity in accordance with the modified method AATCC 100-1993. The tests were performed against the organisms Staphylococcus aureus ATCC 6538 and Escherichia coli ATCC 8739."}, "[2]": {"system": "Staphylococcus aureus ATCC 6538", "assay": "Quantitative evaluation of antibacterial activity of bank note samples, modified AATCC 100-1993", "details": "625 ppm agent in acrylate coating", "method": "as §1, §2, §3, §4"}},
  "data": [
    {"smiles": "Oc1cc(Cl)ccc1Oc1ccc(Cl)cc1Cl", "note": "[2,4,4′-trichloro-2′-hydroxydiphenyl ether]", "values": [
      {"measurement": "log reductions (in words)", "setting": "[1]", "result": "strong log reductions"},
      {"measurement": "log reductions (in words)", "setting": "[2]", "result": "strong log reductions"}
    ]}
  ]
}
